Structures can show the parent of a compound that is named as a salt. Where two headings read alike, the source gives them in different places.
Experiments:
human 5HT7 receptor = target: T1, human 5HT7 receptor (Homo sapiens, UniProt P34969); assay: 5-HT7 Receptor Binding Assay ([3H]LSD displacement, CHO cell membranes)
T1 construct: purchased BioSignal Drug Discovery Technology, Montreal, Canada; host or cells: CHO cells (stably transfected), membranes
T1 sequence (P34969 whole entry): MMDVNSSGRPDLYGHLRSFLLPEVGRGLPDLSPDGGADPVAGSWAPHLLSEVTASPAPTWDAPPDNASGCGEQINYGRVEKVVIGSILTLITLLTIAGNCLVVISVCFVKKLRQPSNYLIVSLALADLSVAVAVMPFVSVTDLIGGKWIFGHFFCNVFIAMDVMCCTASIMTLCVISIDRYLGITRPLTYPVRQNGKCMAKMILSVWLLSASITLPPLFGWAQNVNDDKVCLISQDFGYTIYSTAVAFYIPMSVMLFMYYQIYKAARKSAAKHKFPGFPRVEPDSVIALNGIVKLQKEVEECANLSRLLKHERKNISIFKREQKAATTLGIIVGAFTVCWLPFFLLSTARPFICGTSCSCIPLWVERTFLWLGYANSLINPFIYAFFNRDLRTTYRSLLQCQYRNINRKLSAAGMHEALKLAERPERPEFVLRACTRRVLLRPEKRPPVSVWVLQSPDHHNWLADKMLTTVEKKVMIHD

| SMILES | melting point | other results |
| --- | --- | --- |
| NCCc1c[nH]c2cc3c(cc12)C(=O)N(Cc1ccccc1)CC3 (as salt: HCl) (hydrate or solvate) | 262 to 263 °C | – |
| NCCc1c[nH]c2cc3c(cc12)C(=O)NCC3 (as salt: salt) (hydrate or solvate) [Compound 1, 3-(2-Amino-ethyl)-1,6,7,8-tetrahydro-pyrrolo[2,3-g]isoquinolin-5-one] | 82 to 86 °C | – |
| NCCc1c[nH]c2cc3c(cc12)C(=O)NCC3 [Compound 1, 3-(2-Amino-ethyl)-1,6,7,8-tetrahydro-pyrrolo[2,3-g]isoquinolin-5-one] | – | Ki (human 5HT7 receptor): 14 nM |
| CN1CCN(C2=Nc3ccccc3Oc3ccc(Cl)cc32)CC1 [Loxapine, reference compound] | – | Ki (human 5HT7 receptor; displacement of [3H]LSD, cloned human 5-HT7 receptor membranes from CHO cells, value with 95% confidence interval, read-out: 5-HT7 binding Ki): 43 nM |

Source: US6432974B1, “Pyrrolo-isoquinoline and tetra-hydropyrrolo-isoquinoline derivatives and their use as mediators of the 5-HT7 receptor” (Wyeth, priority 2000, dated 2002)
